Here are results for two molecules from patent US20090143426A1, “Synthesis of 1,3,6-trisubstituted-2-carboxyquinol-4-ones as selective ET A antagonists and their use as medicaments” (priority 2007, published 2009).

In general, IC50 refers to the concentration that gives 50% inhibition. Usually melting point stands for the temperature, or range, at which the solid turns liquid.

Data set [1] concerns BALF neutrophils in female Syrian hamsters. In words: Animal model of smoking related acute lung injury (ET-1 plus cigarette smoke, BALF neutrophils). It is filed as in vivo, hamster. Conditions: 500 μg IP 60 minutes before 5 μg ET-1, then cigarette smoke two hours, three days. How it is done:
Animal models of smoking related acute lung injury. The Animal Care and Utilization Committee of the College of Pharmacy and Allied Health Professions, St. John's University approved all experimental protocols, and the research was conducted according to the requirements of NIH Guide for the Care and Use of Laboratory Animals (revised 1996).
Female Syrian hamsters, weighing approximately 100 g each, were divided into two groups as follows: Group 1 was treated IP with: 1) 500 μg of HJP272 in 0.5 mL Na2CO3 and 2) 5 μg ET-1 in 0.25 mL PBS 60 minutes later, followed immediately by exposure to cigarette smoke for two hours. This regimen was continued for three days.
Group 2 was treated IP with: 1) 0.5 mL Na2CO3 and 2) […] ET-1 in 0.25 mL PBS 60 minutes later, followed immediately by exposure to cigarette smoke for three consecutive days as per Group 1. The animals were placed in a 70×48×38 cm chamber and passively exposed to cigarette smoke produced by a TE-10 smoking machine (Teague Enterprises, Davis, Calif.) that simultaneously burned two filtered research-grade cigarettes (type 2R4F, University of Kentucky). Smoke from both the filtered and burning ends of the cigarette was collected, and then mixed together with air in a separate chamber, thus simulating second-hand smoke exposure. Each cigarette was puffed once per minute for two seconds at a flow rate of 1.05 LPM, yielding 35 mL of smoke. This cycle was repeated nine times before ejecting the cigarette and loading a new one. Proper flow rate was maintained by a vacuum pump that established negative pressure at the exhaust port. Total smoke particulates averaged 87 mg per cubic meter.
All animals were sacrificed 24 hours after completing the smoke exposure regimen to maximize the neutrophil population in the lung, and the percentage of BALF neutrophils was measured (van der Vaart et al. 2004)

A further data set addresses T1, BioXTal ET-B receptor (Homo sapiens, UniProt P24530).
T1 construct: purchased BioXTal
T1 sequence (P24530 27-442): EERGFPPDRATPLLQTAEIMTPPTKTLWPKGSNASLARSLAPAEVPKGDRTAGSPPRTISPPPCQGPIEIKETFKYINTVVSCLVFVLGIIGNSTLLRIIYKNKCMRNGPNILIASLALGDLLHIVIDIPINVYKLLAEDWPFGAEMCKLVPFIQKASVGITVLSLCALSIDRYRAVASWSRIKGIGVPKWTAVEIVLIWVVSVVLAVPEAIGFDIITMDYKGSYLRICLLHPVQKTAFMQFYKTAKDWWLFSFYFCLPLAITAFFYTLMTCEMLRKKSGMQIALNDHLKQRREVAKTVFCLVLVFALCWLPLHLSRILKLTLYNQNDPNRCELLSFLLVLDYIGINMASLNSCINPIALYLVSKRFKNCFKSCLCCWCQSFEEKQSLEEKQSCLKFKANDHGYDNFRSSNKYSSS
In words: In vitro competitive binding assay with [125I]Tyr13-ET-1, ET-B receptor. Conditions: selectivity ETA versus ETB; ET-B assays in duplicate. How it is done:
(§1) In vitro binding assay. Varying concentrations of HJP272, ranging from 10^3 to 10^8 pM, were incubated with 10 ug of BioXTal ET-A or ET-B receptor and 224 pM [^125I]Tyr13-ET-1 in 50 mM NaH2PO4, 150 mM NaCl, 5 mM EDTA, and 0.1% bovine serum albumin.
(§2) For total binding, radio labeled ET-1 and receptor were incubated without the receptor antagonist. For non-specific binding, 300 nM cold ET-1 was substituted for the antagonist. Assay mixtures were incubated at 30 to 32° C. for two hours and the assays were stopped by the addition of cold buffer. Assay mixtures were then quickly filtered through GF/C Whatman filters and washed with cold assay buffer in a Millipore sampling manifold. Filters were collected and counts per minute of the bound radio labeled ET-1 were read by a Packard Cobra Gamma Counter (Perkin Elmer).
(§3) Percent specific binding was calculated for all data points. Assays containing ET-A receptor were run in triplicate and assays containing the ET-B receptor were run in duplicate.

A further data set addresses T2, BioXTal ET-A receptor (Homo sapiens, UniProt P25101).
T2 construct: purchased BioXTal
T2 sequence (P25101 21-427): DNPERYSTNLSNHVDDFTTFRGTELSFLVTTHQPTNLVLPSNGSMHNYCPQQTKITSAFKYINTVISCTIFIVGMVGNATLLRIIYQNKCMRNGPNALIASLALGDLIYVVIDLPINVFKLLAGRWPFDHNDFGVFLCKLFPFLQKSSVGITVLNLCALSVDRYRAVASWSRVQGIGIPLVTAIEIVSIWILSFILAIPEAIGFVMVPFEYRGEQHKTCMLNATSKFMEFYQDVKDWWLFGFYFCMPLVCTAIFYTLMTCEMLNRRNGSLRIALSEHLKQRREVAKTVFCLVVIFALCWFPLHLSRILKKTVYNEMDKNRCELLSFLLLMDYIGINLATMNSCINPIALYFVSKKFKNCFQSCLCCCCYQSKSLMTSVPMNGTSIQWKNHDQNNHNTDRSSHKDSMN
In words: In vitro competitive binding assay with [125I]Tyr13-ET-1, ET-A receptor. To be noted: [125I]ET-1 224 pM; 10 ug receptor; 30 to 32° C., two hours; triplicate; read-out: IC50, inhibition of specific [125I] ET-1 binding to ETA receptor. How it is done: as §1, §2, §3

The subject of data set [2] is LPS-induced (infection-associated) preterm labor and delivery in pregnant C57B1/6 mice. The data set can be described thus: Animal model of preterm birth (LPS-injected timed pregnant mice). It is filed as in vivo, mouse. How it is done: Animal models of preterm birth. The Animal Care and Utilization Committee of the College of Pharmacy and Allied Health Professions, St. John's University approved all experimental protocols, and the research was conducted according to the requirements of NIH Guide for the Care and Use of Laboratory Animals (revised 1996). C57B1/6 mice from Taconic Laboratory were used for all experiments. Animals were housed in plastic cages in a temperature-controlled animal facility with alternating 12:12 hour light-dark cycles, with ad libitum access to food and water.
Nineteen timed pregnant C57B1/6 E15.5 mice were injected with LPS in 0.5 ml PBS at a concentration of 50 mg/kg. These mice were randomly assigned to two groups. Group A mice (n=8) received 50 mg/kg HJP272 dissolved in PBS and Group B mice (n=11) received PBS only.
All treatments were administered by ip injection 10 hours after LPS injection. Mice were continually monitored and the time of delivery of all pups, as well as the number of pups delivered, was recorded. All mice were autopsied at the end of the experiment to confirm pregnancy and to determine the number of pups retained in utero.

Data set [3] deals with attachment of neutrophils to colonic submucosal venules. Conditions: inflammatory bowel disease; Anthoni et al. 2006; cited from earlier work.

Entries after “also recorded” stand apart in the source; their conditions may differ.

Molecule `CCc1cc2c(cc1Cn1c(C(=O)O)c(Cc3cccc(C(=O)O)c3)c(=O)c3cc(O)ccc31)OCO2` [HJP272, 3-(3-carboxybenzyl)-1-((6-ethylbenzo[d][1,3]dioxol-5-yl)methyl)-6-hydroxy-4-oxo-1,4-dihydroquinoline-2-carboxylic acid] gave a melting point of 206 to 208 °C. Further, the “effect on the ET-1-induced rise of BALF neutrophils (words)” value (from here on “effect on the ET-1-induced rise”) in data set [1] is listed as “reversed”. For the same molecule, the “effect on the ET-1-induced rise” value in data set [1] (listed as ETA-RA) is “reversed this effect”. The “effect on the ET-1-induced rise” value in data set [1] (listed as HJP-272) is “reversed”. The “ratio of IC50 for the endothelin B receptor to IC50 for the endothelin A receptor” value on BioXTal ET-B receptor worked out at 219.2. The IC50 at BioXTal ET-A receptor was 70.1 nM. The “percent of prematurely delivered pups” value in data set [2] (E15.5 mice, LPS 50 mg/kg, 50 mg/kg ip 10 hours after LPS, PBS control 39.7) came to 30.0%. For the same molecule, in data set [2] (E15.5 mice, LPS 50 mg/kg, 50 mg/kg ip 10 hours after LPS, control 11 out of 11), the “mice that delivered prematurely” value was “six out of eight”. Moreover, in data set [2] (LPS followed by compound versus LPS followed by vehicle), the “control of premature labor and delivery” value was “controlled preterm labor and delivery in our mouse model of infection-associated preterm labor very effectively; also recorded: significantly better control of premature delivery”. The “prevention of premature expulsion of pups” value in data set [2] (LPS followed by compound versus LPS followed by vehicle, P<0.0001) is recorded as “significantly greater prevention of premature expulsion of pups”. In addition, in data set [2] (the six treated mice that delivered, LPS 50 mg/kg, PBS control T10.9+/−0.61, p<0.0001), the “average delivery time (T)” value was 15.0 ± 1.8 h. Also, in data set [2] (transient exposure, late in gestation), the “craniofacial anomalies in pups” value is given as “None of the pups in the work presented here demonstrated such abnormalities”.

As for `COc1ccccc1Oc1c(NS(=O)(=O)c2ccc(C(C)(C)C)cc2)nc(-c2ncccn2)nc1OCCO` [bosentan], in data set [3], the “attachment of neutrophils to colonic submucosal venules” value was “markedly reduced attachment”.
